From patent US20240166612A1, “ARYLTHIOETHER ACETAMIDE AND RELATED COMPOUNDS AND THEIR USE IN TREATING MEDICAL CONDITIONS” (X-Biotix Therapeutics, Inc., priority 2021, published 2024)
Converted amounts (≈) assume the structure as drawn.

How the values were obtained:
P. aeruginosa PAO397 = test: Broth microdilution MIC, P. aeruginosa PAO397; type: cell-based; conditions: Pseudomonas aeruginosa, PAO397, 18 h, read-out: PAO397 KO MIC
Protocol: (§1) Exemplary compounds from the above Examples were tested to determine their minimum inhibitory concentration (MIC) for exemplary strains of Escherichia and Pseudomonas bacteria using broth microdilution methods. Assay procedures and results are described below.
(§2) Broth microdilution assays were conducted according to Clinical and Laboratory Standards Institute guidelines (CLSI, M07-A^11: Clinical and Laboratory Standards Institute. Methods for Dilution Antimicrobial Susceptibility Tests for Bacteria that Grow Aerobically; Approved Standard-11th Edition. Wayne, PA: CLSI, 2018). Briefly, bacterial suspensions were adjusted to a density equivalent to a 0.5 McFarland standard and diluted in sterile, cation-adjusted Mueller-Hinton broth (Beckton Dickinson) to yield a final inoculum between 2×10^5 and 8×10^5 colony-forming units (CFU)/mL. An inoculum volume of 98 μL was added to wells containing 2 μL of 2-fold serial dilutions of drug (prepared in DMSO). All inoculated microdilution trays were incubated in ambient air at 37° C. for 18 h. […] Performance of the assay was monitored by the use of laboratory quality-control strains (S. aureus ATCC 29213 and P. aeruginosa ATCC 27853) and levofloxacin, a compound with a defined MIC spectrum, in accordance with CLSI guidelines (CLSI, M100Ed29: Clinical and Laboratory Standards Institute. Performance Standards for Antimicrobial Susceptibility Testing, 29th Edition. Wayne, PA: CLSI, 2018).
(§3) Multiple enterobacteriaceae strains were tested, including both wild-type strains and multi-drug resistance pump deficient mutants. Specific strains tested included the following: • Wild-type P. aeruginosa PAO1, • P. aeruginosa PAO1 ΔmexABoprM—Disabled multi-drug efflux system Δ(MexAB-OprM), • P. aeruginosa PAO397—PAO1Δ(mexAB-oprM) Δ(mexCD-oprJ) Δ(mexEF-oprN) Δ(mexJK) Δ(mexXY) ΔopmH, • P. aeruginosa LESB58—Clinical isolate; colistin-resistant, isolated in the United Kingdom in 1988 from a patient with cystic fibrosis • E. coli JW0452-3 (BW25113 JacrA::kan)—Disabled multi-drug efflux system (AcrAB-TolC).
(§4) Experimental results are provided in Table 11, which provides MIC values for wild-type P. aeruginosa PAO1 (“PAO1 WT MIC”), P. aeruginosa PAO ΔmexABoprM (“PAO1 KO MIC”), P. aeruginosa PAO397 (“PAO397 KO MIC”), P. aeruginosa LESB58 (“LESB58”), and E. coli JW0452-3 (BW25113 JacrA::kan) (“E. coli KO MIC”).

[1] = system: P. aeruginosa PAO1 ΔmexABoprM; test: Broth microdilution MIC, P. aeruginosa PAO1 ΔmexABoprM; type: cell-based; conditions: Pseudomonas aeruginosa, PAO1, 18 h, read-out: PAO1 KO MIC
Protocol: as §1, §2, §3, §4

[2] = molecular target: T1, recombinant LpxA enzyme (P. aeruginosa) (Pseudomonas aeruginosa, UniProt Q9X6P4); test: LpxA in vitro substrate acylation assay with RapidFire MS analysis (P. aeruginosa); type: biochemical; conditions: P. aeruginosa enzyme 0.5 nM, PaACP-C10, 30 min
T1 sequence (Q9X6P4 1-258): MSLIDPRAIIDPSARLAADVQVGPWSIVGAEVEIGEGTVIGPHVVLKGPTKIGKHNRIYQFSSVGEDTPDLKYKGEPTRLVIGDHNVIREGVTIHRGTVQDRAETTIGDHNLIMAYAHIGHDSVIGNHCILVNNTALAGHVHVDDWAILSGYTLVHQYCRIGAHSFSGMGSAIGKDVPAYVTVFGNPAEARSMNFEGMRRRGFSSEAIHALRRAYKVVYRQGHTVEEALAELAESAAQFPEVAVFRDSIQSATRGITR
Protocol: Exemplary compounds from the above Examples were tested for ability to inhibit LpxA activity using an in vitro substrate acylation assay with RapidFire™ MS analysis. Assay procedures and results are described below.
Reactions were carried out in a final volume of 30 μL with 25 mM HEPES (pH 7.3), 150 mM NaCl, 2 mM DTT, 0.01% BSA, 5 μM UDP-GlcNac, recombinant LpxA enzyme (0.5 nM P. aeruginosa or 1.0 nM E. coli, both produced at Evotec), 0.5 μM acyl-transfer reagent (decanoyl P. aeruginosa acyl-carrier protein [PaACP-C10] or myristoyl E. coli acyl-carrier protein [EcACP-C1-4], both produced at Evotec), and 1% DMSO containing test compound. After 30 min incubation at room temperature, reactions were stopped by addition of 30 μL of 10% TCA in water.
Samples were centrifuged (4350 rpm, 4° C., 5 min), and then subjected to RapidFire™ MS analysis on an Agilent RapidFire 300 coupled to an Agilent 6460 triple-quadrupole mass spectrometer. Analytes were retained on a C4 (type A) cartridge using the following solvents and flow rates: • Pump 1—H2O with 5 mM NH4OAc at 2.0 mL/min, • Pump 2—MeOH/H2O (90/10) at 1.5 mL/min, • Pump 3—MeOH/H2O (90/10) at 0.5 mL/min, and • Pump 4—ACN (organic)/H2O (aqueous). Substrate and product of the reaction were detected in negative mode ESI-MS/MS by MRM (multiple reaction monitoring) of transitions 606.0/385.0 (UDP-GlcNAc substrate) and 776.2/385.0 (UDP-3-O—(R-3-hydroxydecanoyl)-GlcNAc product, for P. aeruginosa LpxA assay) or 832.2/385.0 (UDP-3-O—(R-3-hydroxymyristoyl)-GlcNAc product, for E. coli LpxA assay).
For IC50 determinations, peak areas of the substrate and product were compared to compute the proportion of product formed by the LpxA enzyme at each compound concentration.

[3] = system: Wild-type P. aeruginosa PAO1; test: Broth microdilution MIC, wild-type P. aeruginosa PAO1; type: cell-based; conditions: Pseudomonas aeruginosa; wild-type P. aeruginosa PAO1, 37° C., 18 h; read-out: PAO1 WT MIC
Protocol: as §1, §2, §3, §4

P. aeruginosa LESB58 = test: Broth microdilution MIC, P. aeruginosa LESB58; type: cell-based; conditions: Pseudomonas aeruginosa; P. aeruginosa LESB58 clinical isolate, colistin-resistant, 37° C., 18 h
Protocol: as §1, §2, §3, §4

SMILES | MIC (P. aeruginosa PAO397) | MIC [1] | IC50 [2] | MIC [3] | MIC (P. aeruginosa LESB58)
N#Cc1ccc(CN(Cc2nnc(N)o2)C(=O)CSc2cccc(F)c2Cl)c(F)c1 [Compound No. 28, N-[(5-Amino-1,3,4-oxadiazol-2-yl)methyl]-2-(2-chloro-3-fluoro-phenyl)sulfanyl-N-[(4-cyano-2-fluoro-phenyl)methyl]acetamide] | < 1 µg/mL | 1 to 16 µg/mL (≈ 2.22 to 35.6 µM) | < 20 nM | 16 to 64 µg/mL (≈ 35.6 to 142 µM) | 
N#Cc1ccc(CN(Cc2nnc(N)o2)C(=O)COc2cc(F)cc(F)c2Cl)c(F)c1 [Compound No. 31, N-[(5-Amino-1,3,4-oxadiazol-2-yl)methyl]-2-(2-chloro-3,5-difluoro-phenoxy)-N-[(4-cyano-2-fluoro-phenyl)methyl]acetamide] | < 1 µg/mL | 1 to 16 µg/mL (≈ 2.21 to 35.4 µM) |  | > 64 µg/mL | 1 to 16 µg/mL (≈ 2.21 to 35.4 µM)
N#Cc1ccc(CN(Cc2nnc(N)o2)C(=O)CSc2cc(OCCN)ccc2Cl)c(F)c1 [Compound No. 60, 2-[5-(2-Aminoethoxy)-2-chloro-phenyl]sulfanyl-N-[(5-amino-1,3,4-oxadiazol-2-yl)methyl]-N-[(4-cyano-2-fluoro-phenyl)methyl]acetamide] | < 1 µg/mL | 1 to 16 µg/mL (≈ 2.04 to 32.6 µM) | 100 to 1000 nM | > 64 µg/mL | 
N#Cc1ccc(CN(Cc2nnc(N)o2)C(=O)CSc2cc(CCO)ccc2Cl)c(F)c1 [Compound No. 63, N-[(5-Amino-1,3,4-oxadiazol-2-yl)methyl]-2-[2-chloro-5-(2-hydroxyethyl)phenyl]sulfanyl-N-[(4-cyano-2-fluoro-phenyl)methyl]acetamide] | < 1 µg/mL | 1 to 16 µg/mL (≈ 2.1 to 33.6 µM) |  | > 64 µg/mL | 16 to 64 µg/mL (≈ 33.6 to 134 µM)
CCc1c(F)cc(F)cc1OCC(=O)N(Cc1nnc(N)o1)Cc1ccc(C#N)cc1F [Compound No. 64, N-[(5-Amino-1,3,4-oxadiazol-2-yl)methyl]-N-[(4-cyano-2-fluoro-phenyl)methyl]-2-(2-ethyl-3,5-difluoro-phenoxy)acetamide] | < 1 µg/mL | < 1 µg/mL |  | 16 to 64 µg/mL (≈ 35.9 to 144 µM) | 1 to 16 µg/mL (≈ 2.25 to 35.9 µM)
Cc1noc(CN(Cc2ccc(C#N)cc2)C(=O)CSc2ccccc2Cl)n1 [Compound No. 68, 2-(2-Chlorophenyl)sulfanyl-N-[(4-cyanophenyl)methyl]-N-[(3-methyl-1,2,4-oxadiazol-5-yl)methyl]acetamide] | 1 to 16 µg/mL (≈ 2.42 to 38.8 µM) | 16 to 64 µg/mL (≈ 38.8 to 155 µM) | 20 to 100 nM | > 64 µg/mL | 
CCc1ccccc1SCC(=O)N(Cc1ccc(C#N)cc1)Cc1nnc(N)[nH]1 [Compound No. 70, N-[(5-Amino-4H-1,2,4-triazol-3-yl)methyl]-N-[(4-cyanophenyl)methyl]-2-(2-ethylphenyl)sulfanyl-acetamide] | < 1 µg/mL | 1 to 16 µg/mL (≈ 2.46 to 39.4 µM) | 20 to 100 nM | > 64 µg/mL | 
N#Cc1ccc(CN(Cc2nnc(N)o2)C(=O)CSc2ccccc2Cl)c(F)c1 [compound 13] | < 1 µg/mL | 1 to 16 µg/mL (≈ 2.32 to 37 µM) |  | 16 to 64 µg/mL (≈ 37 to 148 µM) | 1 to 16 µg/mL (≈ 2.32 to 37 µM)
N#Cc1ccc(CN(Cc2nnc(N)o2)C(=O)CSc2ccccc2Cl)cn1 [compound 14] | < 1 µg/mL | 1 to 16 µg/mL (≈ 2.41 to 38.6 µM) |  | > 64 µg/mL | 16 to 64 µg/mL (≈ 38.6 to 154 µM)
Cc1ccccc1SCC(=O)N(Cc1ccc(C#N)nc1)Cc1nnc(N)o1 [compound 15] | 1 to 16 µg/mL (≈ 2.54 to 40.6 µM) | 1 to 16 µg/mL (≈ 2.54 to 40.6 µM) | 100 to 1000 nM | > 64 µg/mL | 
N#Cc1ccc(CN(Cc2nnc(N)o2)C(=O)COc2cccc(Cl)c2)c(F)c1 [compound 20] | 1 to 16 µg/mL (≈ 2.4 to 38.5 µM) | 16 to 64 µg/mL (≈ 38.5 to 154 µM) |  | > 64 µg/mL | > 64 µg/mL
N#Cc1cc(F)c(CN(Cc2nnc(N)o2)C(=O)CSc2cccc(F)c2Cl)c(F)c1 [compound 25] | < 1 µg/mL | 1 to 16 µg/mL (≈ 2.14 to 34.2 µM) |  | 1 to 16 µg/mL (≈ 2.14 to 34.2 µM) | 1 to 16 µg/mL (≈ 2.14 to 34.2 µM)
N#Cc1cc(F)c(CN(Cc2nnc(N)o2)C(=O)CSc2cc(F)cc(F)c2Cl)c(F)c1 [compound 26] | < 1 µg/mL | < 1 µg/mL |  | > 64 µg/mL | 1 to 16 µg/mL (≈ 2.06 to 32.9 µM)
N#Cc1ccc(CN(Cc2nnc(N)o2)C(=O)CSc2cc(F)ccc2Cl)c(F)c1 [compound 30] | < 1 µg/mL | 1 to 16 µg/mL (≈ 2.22 to 35.6 µM) | < 20 nM | 16 to 64 µg/mL (≈ 35.6 to 142 µM) | 
N#Cc1ccc(CN(Cc2nnc(N)o2)C(=O)COc2ccccc2C(F)(F)F)cc1 [compound 33] | < 1 µg/mL | 16 to 64 µg/mL (≈ 37.1 to 148 µM) | 20 to 100 nM | > 64 µg/mL | 
N#Cc1ccc(CN(Cc2nnc(N)o2)C(=O)COc2ccccc2Br)cc1 [compound 35] | < 1 µg/mL | 1 to 16 µg/mL (≈ 2.26 to 36.2 µM) | 20 to 100 nM | > 64 µg/mL | 
CCc1ccccc1OCC(=O)N(Cc1nnc(N)o1)Cc1ccc(C#N)cc1F [compound 37] | < 1 µg/mL | 1 to 16 µg/mL (≈ 2.44 to 39.1 µM) |  | > 64 µg/mL | 16 to 64 µg/mL (≈ 39.1 to 156 µM)
CCc1ccc(F)cc1OCC(=O)N(Cc1nnc(N)o1)Cc1ccc(C#N)cc1F [compound 38] | < 1 µg/mL | 1 to 16 µg/mL (≈ 2.34 to 37.4 µM) |  | 16 to 64 µg/mL (≈ 37.4 to 150 µM) | 16 to 64 µg/mL (≈ 37.4 to 150 µM)
N#Cc1ccc(CN(Cc2nnc(N)o2)C(=O)COc2ccccc2OC(F)(F)F)c(F)c1 [compound 39] | 1 to 16 µg/mL (≈ 2.15 to 34.4 µM) | 16 to 64 µg/mL (≈ 34.4 to 138 µM) |  | > 64 µg/mL | > 64 µg/mL
CCc1c(F)cccc1OCC(=O)N(Cc1nnc(N)o1)Cc1ccc(C#N)cc1F [compound 41] | < 1 µg/mL | < 1 µg/mL |  | > 64 µg/mL | 1 to 16 µg/mL (≈ 2.34 to 37.4 µM)
CCc1ccccc1SCC(=O)N(Cc1nnc(N)o1)Cc1ccc(C#N)cc1F [compound 42] | < 1 µg/mL | 1 to 16 µg/mL (≈ 2.35 to 37.6 µM) |  | 16 to 64 µg/mL (≈ 37.6 to 150 µM) | 1 to 16 µg/mL (≈ 2.35 to 37.6 µM)
N#Cc1ccc(CN(Cc2nnc(N)o2)C(=O)CSc2cc(CO)ccc2Cl)cc1 [compound 45] | < 1 µg/mL | 1 to 16 µg/mL (≈ 2.25 to 36 µM) | 20 to 100 nM | > 64 µg/mL | 
N#Cc1ccc(CN(Cc2nnc(N)o2)C(=O)CSc2cccc(F)c2Cl)cc1 [compound 52] | < 1 µg/mL | 1 to 16 µg/mL (≈ 2.32 to 37 µM) |  | > 64 µg/mL | 1 to 16 µg/mL (≈ 2.32 to 37 µM)
N#Cc1ccc(CN(Cc2nnc(N)o2)C(=O)CSc2cc(F)cc(F)c2Cl)c(F)c1 [compound 55] | < 1 µg/mL | < 1 µg/mL |  | 1 to 16 µg/mL (≈ 2.14 to 34.2 µM) | 1 to 16 µg/mL (≈ 2.14 to 34.2 µM)
N#Cc1ccc(CN(Cc2nnc(N)o2)C(=O)CSc2ccccc2OC(F)(F)F)c(F)c1 [compound 56] | < 1 µg/mL | 16 to 64 µg/mL (≈ 33.2 to 133 µM) |  | > 64 µg/mL | > 64 µg/mL
